# In PMC11926788, “Effect of SSR504734, a Selective Glycine Transporter Type 1 Inhibitor, on Seizure Thresholds, Neurotransmitter Levels, and Inflammatory Markers in Mice” (ACS Chemical Neuroscience, 2025):
# Structures can show the parent of a compound that is named as a salt.
# Legend:
# [1] = test system: i.v. PTZ-induced seizures in mice; assay: Intravenous (i.v.) PTZ seizure threshold test; type: in vivo; conditions: VPA 150 mg/kg
# Experimental: Mice were individually placed in a plastic restrainer (12 cm long, 3 cm inner diameter), and the lateral vein of each mouse was catheterized using a 27-gauge needle (Sterican, B. Braun Melsungen, Melsungen, Germany). The needle was attached by polyethylene tubing (PE20RW, Plastics One Inc., Roanoke, VA, USA) to a 10 mL plastic syringe containing 1% solution of PTZ in saline (Sigma-Aldrich, St. Louis, MO, USA) and mounted to a syringe pump (model Physio 22, Hugo Sachs Elektronik, Harvard Apparatus GmbH, March-Hugstetten, Germany). Piece of adhesive tape was used to secure the needle. The proper placement of the needle in the vein was verified by the appearance of blood in the tubing. During the test, mice were placed in a transparent box for observation. The PTZ solution was administered to freely moving mice at a constant rate of 0.2 mL/min. The time intervals from the initiation of PTZ infusion to the occurrence of the three following end points, i.e., (1) the first myoclonic twitch, (2) generalized clonic seizure with loss of righting reflex, and (3) forelimb tonus, were recorded. The PTZ infusion was terminated when tonic seizures, which were often fatal for the mice, began. All mice that survived were euthanized immediately. The thresholds were calculated separately for each end point using the following formula: threshold dose of PTZ (mg/kg) = infusion duration (s) × infusion rate (mL/s) × PTZ concentration (mg/mL)/body weight (kg). Seizure threshold was expressed as the amount of PTZ (mg/kg) ± SD (standard deviation) needed to produce the first observable sign of each end point. Each group consisted of 12–15 animals.
# [2] = Grip strength test (neuromuscular strength); type: in vivo, mice
# Experimental: The effect of SSR504734 on neuromuscular strength was determined using the grip-strength apparatus (BioSeb, Chaville, France). The apparatus consists of a steel wire grid of 8 × 8 cm, connected to an isometric force transducer. Each mouse was held by the tail, allowing it to grasp the grid with its forepaws only and steadily pulled back until it released the grid. The maximum grip strength value (in newtons; N) was measured three times for each animal. The mean force was normalized to body weight and expressed in mN/g ± SD for each experimental group. In order to minimize the number of animals used, a grip-strength test was carried out shortly before seizure tests.
# Table S2. Time-course effect of SSR5504734 on neuromuscular strength and motor […]
# Group Neuromuscular strength Impairment of motor
# SSR504734 was dissolved in normal saline and injected i.p. at the dose of 30 mg/kg. Control animals received saline. The data are expressed as the mean ± SD of grip strengths measured in millinewtons per gram of mouse body weight (mN/g) from the grip-strength test assessing […]
# coordination impairment in the chimney test. Each experimental group consisted of 12 animals. The grip-strength test results were analyzed using a one-way ANOVA with Dunnett’s post hoc test, while the data from the chimney test were statistically evaluated using Fisher’s exact probability test. *p<0.05 vs. control group.
# Table S3. Effect of acute and 14-day treatment with SSR504734 on neuromuscular strength and motor coordination in mice
# In acute studies, SSR504734 and sodium valproate (VPA; positive control) were injected i.p.
# 60 and 15 min before the test, respectively. In subchronic studies, SSR504734 and VPA were injected i.p. every 24 h for 14 days. The last administration was made 60 and 15 min before the tests, respectively. Control animals received saline. Each experimental group consisted of 12 animals. The grip-strength test results were analyzed using a one-way ANOVA with […]
# Fisher’s exact probability test.
# [3] = test system: human serum albumin and alpha-1-acid glycoprotein; assay: Plasma protein binding (TRANSIL XL PPB test); type: in vitro ADME; conditions: ± SD, fraction bound to plasma proteins, read-out: PPB fb (converted)
# Experimental: A series of in vitro ADME-Tox tests were performed for SSR504734 in order to estimate its drugability. The ADME-Tox parameters including permeability, plasma protein binding, metabolic stability, neurotoxicity, and hepatotoxicity were carried out as described previously.[31],[32] The ability of SSR504734 to penetrate through the biological membrane by passive diffusion was estimated by the Gentest Precoated PAMPA Plate System (Corning, Tewksbury, MA) and expressed as the permeability coefficient (Pe). The protein binding analysis was performed by using the commercial TRANSIL^XL PPB test, which mimics in vitro physiological plasma conditions where human serum albumin (HAS) and alpha-1-acid glycoprotein AGP are present in a 24:1 ratio. The human metabolism of SSR504734 was studied using human liver microsomes (HLMs) provided by Sigma-Aldrich. The hepatotoxicity and neurotoxicity were estimated in cellular models with the use of hepatoma HepG2 and neuroblastoma SH-SY5Y cell lines to perform the preliminary safety tests. The cells were incubated with SSR504734 at the concentration range of 0.1–100 μM. 1 μM cytostatic drug doxorubicin (DX) was used as the reference.
# GlyT1 = conditions: in vitro assay; cited from earlier work
structure (smiles),measurement,setting,value
"O=C(NC(c1ccccc1)C1CCCCN1)c1cccc(C(F)(F)F)c1Cl [SSR504734, 2-chloro-N-[(S)-phenyl[(2S)-piperidin-2-yl]methyl]-3-trifluoromethyl benzamide monohydrochloride]","effect on thresholds for myoclonic twitch, generalized clonus and forelimb tonus",[1]; 14-day treatment i.p.,no significant effect
same,"effect on thresholds for myoclonic twitch, generalized clonus and forelimb tonus",[1]; single administration i.p.,no significant effect
same,Neuromuscular strength,"[2]; 30 mg/kg i.p., 30 min",30.33 ± 5.38 mN/g
same,Neuromuscular strength,"[2]; 30 mg/kg i.p., 60 min",33.63± 4.94 mN/g
same,Neuromuscular strength,"[2]; 30 mg/kg i.p., 120 min",33.49 ± 3.76 mN/g
same,Neuromuscular strength,"[2]; 30 mg/kg i.p., 240 min",32.13 ± 3.42 mN/g
same,Neuromuscular strength,"[2]; 14-day treatment, 3 mg/kg i.p.",25.02 ± 5.35 mN/kg
same,Neuromuscular strength,"[2]; 14-day treatment, 10 mg/kg i.p.",23.48 ± 5.98 mN/kg
same,Neuromuscular strength,"[2]; 14-day treatment, 30 mg/kg i.p.",27.76 ± 6.00 mN/kg
same,Neuromuscular strength,"[2]; acute treatment, 10 mg/kg i.p.",31.15 ± 5.55 mN/kg
same,Neuromuscular strength,"[2]; acute treatment, 30 mg/kg i.p.",31.00 ± 9.46 mN/kg
same,Neuromuscular strength,"[2]; acute treatment, 50 mg/kg i.p.",30.31 ± 5.08 mN/kg
same,fraction unbound,[3],0.013
same,IC50 for GlyT1 inhibition,GlyT1,7.8 (±2.6) ng/mL
